Entries after “also recorded” stand apart in the source; their conditions may differ.

For data set [1], the system named is Raw264.7 macrophage cells. In words: in vitro. Type of data set: cell-based, murine. The conditions noted are these: Example 1 results.
A further data set in a line: in vitro. Type of data set: cell-based, murine. The conditions noted are these: mouse, Raw264.7 cell viability.
Data set [2] relates to IMQ-induced psoriasis-like skin inflammation. The data set can be described thus: Mouse model of IMQ-induced psoriasis-like skin inflammation. The conditions noted are these: topical Clobetasol 0.02%. The data set is classed as in vivo, BALB/c mice. As for the experimental part: All experimental procedures were approved by the Mackay Memorial Hospital Animal Care and Uses Committee and conducted according to national animal welfare regulations. Psoriasis-like skin inflammation was created by treating mouse skin with Imiquimod (IMQ) in accordance with the procedures described by van der Fits et al (J Immunol. (2009), 182, 5836-5845). Accordingly, each BALB/c mice (8 weeks old) received a daily topical dose of 62.5 mg of commercially available IMQ cream (5%) on the shaved back and the right ear for 6 consecutive days; whereas the control mice (normal group) were treated with a control cream. For treatment, 7-mer analogue was mixed with IMQ cream to a concentration 100 μM.
Keratinocyte proliferation was determined by 5-bromo-2′-deoxyuridine (BrdU) incorporation. BrdU (Sigma-Aldrich) was reconstituted in DMSO as a stock solution of 80 mM. 10 μl of BrdU mixed with 90 μl of PBS was intraperitoneally injected into each mouse for 24 hr prior to euthanasia. Back skin was fixed overnight in 4% paraformaldehyde and embedded in paraffin for immunohistochemistry.
In this example, the efficacy of the present synthetic peptides of Example 1 on IMQ-induced psoriasis-like skin inflammation was investigated. To this purpose, animals (8-week-old mice) were given a daily topical dose of IMQ cream on the shaved back for six consecutive days, so as to induce psoriasis-like skin inflammation and desquamation (FIG. 1; left panel).
Psoriasis is a disease resulted from abnormal keratinocyte proliferation, thus the effects of the present synthetic peptides on the proliferation of keratinocytes were also monitored in accordance with procedures described in the section of “Materials and Methods”. Results are illustrated in FIG. 2.

Consider `CC(=O)N[C@@H](CC(N)=O)C(=O)N[C@H](C(=O)N[C@@H](Cc1ccc(O)cc1)C(=O)N[C@@H](CCCNC(=N)N)C(=O)N[C@H](C(=O)N[C@@H](CCCNC(=N)N)C(=O)N[C@@H](CO)C(N)=O)C(C)C)C(C)C` [7-mer NV, NH2-Asn-Val-Tyr-Arg-Val-Arg-Ser-COOH], for which the “bioactivity / inhibitory activity relative to 7-mer (in words)” value in data set [1] is “could sustain 7-mer bioactivity, only partly”. The viability at 24 h, 20 μM in the data set “in vitro” is 74.8 ± 1.73%.

On to `CC(=O)N[C@@H](CC(=O)O)C(=O)N[C@@H](CC(C)C)C(=O)N[C@@H](Cc1ccc(O)cc1)C(=O)N[C@@H](CCCNC(=N)N)C(=O)N[C@@H](CCC(N)=O)C(=O)N[C@@H](CCCCN)C(=O)N[C@@H](CO)C(N)=O` [7-mer QK, NH2-Asp-Leu-Tyr-Arg-Gln-Lys-Ser-COOH], for which, in data set [1], the “bioactivity / inhibitory activity relative to 7-mer (in words)” value is on record as “could sustain 7-mer bioactivity, only partly”. This molecule also showed a viability at 24 h, 20 μM in “in vitro” of 77.7 ± 3.02%.

For the molecule `CC(=O)N[C@@H](CC(=O)O)C(=O)N[C@H](C(=O)N[C@@H](Cc1ccccc1)C(=O)N[C@@H](CCCNC(=N)N)C(=O)N[C@H](C(=O)N[C@@H](CCCNC(=N)N)C(=O)N[C@H](C(N)=O)[C@@H](C)O)C(C)C)C(C)C` [7-mer VFT, NH2-Asp-Val-Phe-Arg-Val-Arg-Thr-COOH], the “bioactivity / inhibitory activity relative to 7-mer (in words)” value in data set [1] is on record as “could sustain 7-mer bioactivity, only partly; also recorded: relatively the same bioactivity that is similar to the 7-mer”. The viability at 24 h, 20 μM in the data set “in vitro” was found to be 71.1 ± 2.48%.

Regarding `CC[C@H](C)[C@H](NC(=O)[C@H](CCCNC(=N)N)NC(=O)[C@H](Cc1c[nH]c2ccccc12)NC(=O)[C@H](CC(C)C)NC(=O)[C@H](CC(=O)O)NC(C)=O)C(=O)N[C@@H](CCCNC(=N)N)C(=O)N[C@@H](CO)C(N)=O` [7-mer WI, NH2-Asp-Leu-Trp-Arg-Ile-Arg-Ser-COOH], the “bioactivity / inhibitory activity relative to 7-mer (in words)” value in data set [1] is “could sustain 7-mer bioactivity, only partly”. The viability at 24 h, 20 μM in “in vitro” amounted to 77.9 ± 2.87%.

With `C[C@H]1C[C@H]2[C@@H]3CCC4=CC(=O)C=C[C@]4(C)[C@@]3(F)[C@@H](O)C[C@]2(C)[C@@]1(O)C(=O)CCl` [Clobetasol, reference compound], the desquamation formation entry in data set [2] (FIG. 1) is “ameliorated desquamation formation”. Also, in data set [2] (entire back of test animals), the skin atrophy result is “caused skin atrophy”.

Source of the values: patent US10463710B2, “Short synthetic peptide for the treatment and/or prophylaxis of autoimmune and inflammatory disorders” (MacKay Memorial Hospital, priority 2015, dated 2019).
